In ChEMBL document CHEMBL1146254, “Identification of Sansalvamide a analog potent against pancreatic cancer cell lines” (Bioorg Med Chem Lett, 2007):
Where a SMILES comes first, the peptide text is derived from it. [ ]: non-standard residue; d: D form. Cha = N[C@@H](CC1CCCCC1)C(=O)O; NMeL = CN[C@@H](CC(C)C)C(=O)O; dNMeL = CN[C@H](CC(C)C)C(=O)O; dNMeV = CN[C@@H](C(=O)O)C(C)C; dAbu = CC[C@@H](N)C(=O)O

Experiments:
Settings in all cases: Homo sapiens
[1] = Cytotoxicity against PL45 cells at 5 uM by [3H]thymidine inhibition assay; assay type: functional, cell-based
BXPC-3 = experiment: Cytotoxicity against BxPC3 cells at 5 uM by [3H]thymidine inhibition assay; assay type: functional, cell-based
[2] = Cytotoxicity against WS1 cells; assay type: cell-based

CC(C)C[C@@H]1NC(=O)[C@H](Cc2ccccc2)NC(=O)[C@H](CC(C)C)NC(=O)[C@@H](C(C)C)NC(=O)[C@H](CCCCNC(=O)Cc2ccccc2)NC1=O
inhibition at 5 µM [1]: 29% | inhibition at 5 µM (BXPC-3): 29%

CC(C)C[C@@H]1NC(=O)[C@H](Cc2ccccc2)NC(=O)[C@@H](CC(C)C)N(C)C(=O)[C@H](CC(C)C)NC(=O)[C@H](CC(C)C)NC1=O
inhibition at 5 µM [1]: 5% | inhibition at 5 µM (BXPC-3): 2%

CC(C)C[C@@H]1NC(=O)[C@H](CC(C)C)NC(=O)[C@H](CC(C)C)NC(=O)[C@@H](Cc2c[nH]c3ccccc23)NC(=O)[C@H](CC(C)C)NC1=O
inhibition at 5 µM [1]: 18% | inhibition at 5 µM (BXPC-3): 30%

CC(C)C[C@@H]1NC(=O)[C@H](Cc2ccccc2)NC(=O)[C@H](CC(C)C)N(C)C(=O)[C@H](CC(C)C)NC(=O)[C@H](CC(C)C)NC1=O
inhibition at 5 µM [1]: 27% | inhibition at 5 µM (BXPC-3): 46%

CC(C)C[C@@H]1NC(=O)[C@H](CC(C)C)NC(=O)[C@H](Cc2ccccc2)NC(=O)[C@@H](CC(C)C)NC(=O)[C@H](CC(C)C)NC1=O
inhibition at 5 µM [1]: 41% | inhibition at 5 µM (BXPC-3): 34%

CC(C)C[C@@H]1NC(=O)[C@H](Cc2ccccc2)NC(=O)[C@H](CC(C)C)NC(=O)[C@H](CC(C)C)NC(=O)[C@H](CC(C)C)NC1=O
IC50 [1]: 70 µM | inhibition at 5 µM [1]: 25% | IC50 (BXPC-3): 25000 nM | inhibition at 5 µM (BXPC-3): 42% | IC50 [2]: 200 µM

CC(C)C[C@@H]1NC(=O)[C@H](CC(C)C)NC(=O)[C@H](Cc2ccccc2)NC(=O)[C@@H](CO)NC(=O)[C@H](CC(C)C)NC1=O
inhibition at 5 µM [1]: 32% | inhibition at 5 µM (BXPC-3): 25%

CC(C)C[C@@H]1NC(=O)[C@H](CC(C)C)NC(=O)[C@H](Cc2ccccc2)N(C)C(=O)[C@H](CC(C)C)NC(=O)[C@H](CC(C)C)NC1=O
IC50 [1]: 5 µM | inhibition at 5 µM [1]: 44% | IC50 (BXPC-3): 2000 nM | inhibition at 5 µM (BXPC-3): 62% | IC50 [2]: 200 µM

CC(C)C[C@@H]1NC(=O)[C@H](CC(C)C)NC(=O)[C@H](CC(C)C)NC(=O)[C@@H](Cc2ccccc2)NC(=O)[C@H](CC(C)C)NC1=O
IC50 [1]: 5 µM | inhibition at 5 µM [1]: 48% | IC50 (BXPC-3): 2000 nM | inhibition at 5 µM (BXPC-3): 64% | IC50 [2]: 200 µM

CC(C)C[C@@H]1NC(=O)[C@H](CC(C)C)NC(=O)[C@H](Cc2ccccc2)NC(=O)[C@@H](Cc2ccccc2)NC(=O)[C@H](CC(C)C)NC1=O
inhibition at 5 µM [1]: 45% | inhibition at 5 µM (BXPC-3): 21%

CC(C)C[C@@H]1NC(=O)[C@H](CC(C)C)NC(=O)[C@H](CC(C)C)NC(=O)[C@@H](Cc2ccc(O)cc2)NC(=O)[C@H](CC(C)C)NC1=O
inhibition at 5 µM [1]: 46% | inhibition at 5 µM (BXPC-3): 33%

CC(C)C[C@@H]1NC(=O)[C@H](Cc2ccccc2)NC(=O)[C@H](CC(C)C)NC(=O)[C@@H](C(C)C)NC(=O)[C@H](CCCCN)NC1=O (cyclo(FLK[dV]L))
inhibition at 5 µM [1]: 20% | inhibition at 5 µM (BXPC-3): 16%

CC[C@H]1NC(=O)[C@H](CC(C)C)NC(=O)[C@H](CC(C)C)NC(=O)[C@H](Cc2ccccc2)NC(=O)[C@H](CC(C)C)NC1=O (cyclo(FLL[dAbu]L))
inhibition at 5 µM [1]: 12% | inhibition at 5 µM (BXPC-3): 17%

CC(C)C[C@@H]1NC(=O)[C@H](Cc2ccccc2)NC(=O)[C@H](CC(C)C)NC(=O)[C@@H](Cc2ccccc2)NC(=O)[C@H](CC(C)C)NC1=O (cyclo(FLL[dF]L))
inhibition at 5 µM [1]: 33% | inhibition at 5 µM (BXPC-3): 8%

CC(C)C[C@@H]1NC(=O)[C@H](Cc2ccccc2)NC(=O)[C@H](CC(C)C)NC(=O)[C@@H](C(C)C)N(C)C(=O)[C@H](CC(C)C)NC1=O (cyclo(FLL[dNMeV]L))
inhibition at 5 µM [1]: 29% | inhibition at 5 µM (BXPC-3): 34%

CC(C)C[C@@H]1NC(=O)[C@H](Cc2ccccc2)NC(=O)[C@H](CC(C)C)NC(=O)[C@@H](CO)NC(=O)[C@H](CC(C)C)NC1=O (cyclo(FLL[dS]L))
inhibition at 5 µM [1]: 25% | inhibition at 5 µM (BXPC-3): 22%

CC(C)C[C@@H]1NC(=O)[C@H](Cc2ccccc2)NC(=O)[C@H](CC(C)C)NC(=O)[C@@H](C(C)C)NC(=O)[C@H](CC(C)C)NC1=O (cyclo(FLL[dV]L))
IC50 [1]: 1.4 µM | inhibition at 5 µM [1]: 74% | IC50 (BXPC-3): 5000 nM | inhibition at 5 µM (BXPC-3): 50% | IC50 [2]: 20 µM

CC(C)C[C@@H]1NC(=O)[C@H](Cc2ccccc2)NC(=O)[C@@H](CC(C)C)NC(=O)[C@@H](C(C)C)NC(=O)[C@H](CC(C)C)NC1=O (cyclo(FLL[dV][dL]))
inhibition at 5 µM [1]: 41% | inhibition at 5 µM (BXPC-3): 16%

CC(C)C[C@@H]1NC(=O)[C@H](C(C)C)NC(=O)[C@H](CC(C)C)N(C)C(=O)[C@H](CC(C)C)NC(=O)[C@H](Cc2ccccc2)NC1=O (cyclo(FL[NMeL]VL))
inhibition at 5 µM [1]: 45% | inhibition at 5 µM (BXPC-3): 2%

CC(C)C[C@@H]1NC(=O)[C@H](Cc2ccccc2)NC(=O)[C@H](CC(C)C)NC(=O)[C@H](C(C)C)NC(=O)[C@@H](CC(C)C)NC1=O (cyclo(FL[dL]VL))
inhibition at 5 µM [1]: 24% | inhibition at 5 µM (BXPC-3): 74%

CC(C)C[C@@H]1NC(=O)[C@H](C(C)C)NC(=O)[C@H](CC(C)C)NC(=O)[C@H](CC(C)C)N(C)C(=O)[C@H](Cc2ccccc2)NC1=O (cyclo(F[NMeL]LVL))
IC50 [1]: 3 µM | inhibition at 5 µM [1]: 55% | IC50 (BXPC-3): 2000 nM | inhibition at 5 µM (BXPC-3): 59% | IC50 [2]: 200 µM

CC(C)C[C@@H]1NC(=O)[C@@H](C(C)C)NC(=O)[C@H](CC(C)C)NC(=O)[C@H](CC(C)C)N(C)C(=O)[C@H](Cc2ccccc2)NC1=O (cyclo(F[NMeL]L[dV]L))
inhibition at 5 µM [1]: 26% | inhibition at 5 µM (BXPC-3): 2%

CC(C)C[C@@H]1NC(=O)[C@H](C(C)C)NC(=O)[C@H](CC(C)C)NC(=O)[C@@H](CC(C)C)NC(=O)[C@H](Cc2ccccc2)NC1=O (cyclo(F[dL]LVL))
inhibition at 5 µM [1]: 73% | inhibition at 5 µM (BXPC-3): 29%

CC(C)C[C@@H]1NC(=O)[C@@H](C(C)C)N(C)C(=O)[C@H](CC(C)C)NC(=O)[C@@H](CC(C)C)NC(=O)[C@H](Cc2ccccc2)NC1=O (cyclo(F[dL]L[dNMeV]L))
inhibition at 5 µM [1]: 21% | inhibition at 5 µM (BXPC-3): 35%

CC(C)C[C@@H]1NC(=O)[C@@H](CC(C)C)NC(=O)[C@H](Cc2ccccc2)NC(=O)[C@H](CC(C)C)NC(=O)[C@@H](C(C)C)NC1=O (cyclo(F[dL]L[dV]L))
inhibition at 5 µM [1]: 32% | inhibition at 5 µM (BXPC-3): 13%

CC(C)C[C@@H]1NC(=O)[C@H](C(C)C)NC(=O)[C@H](CC(C)C)N(C)C(=O)[C@@H](CC(C)C)NC(=O)[C@H](Cc2ccccc2)NC1=O (cyclo(F[dL][NMeL]VL))
inhibition at 5 µM [1]: 25% | inhibition at 5 µM (BXPC-3): 71%

CC(C)C[C@@H]1NC(=O)[C@H](C(C)C)NC(=O)[C@@H](CC(C)C)NC(=O)[C@@H](CC(C)C)NC(=O)[C@H](Cc2ccccc2)NC1=O (cyclo(F[dL][dL]VL))
IC50 [1]: 5 µM | inhibition at 5 µM [1]: 51% | IC50 (BXPC-3): 1400 nM | inhibition at 5 µM (BXPC-3): 78% | IC50 [2]: 200 µM

CC(C)C[C@@H]1NC(=O)[C@H](CC(C)C)NC(=O)[C@@H](Cc2ccccc2)NC(=O)[C@@H](CC(C)C)NC(=O)[C@@H](C(C)C)NC1=O (cyclo(LL[dV][dL][dF]))
inhibition at 5 µM [1]: 67% | inhibition at 5 µM (BXPC-3): 34%

CC(C)C[C@@H]1NC(=O)[C@H](Cc2ccccc2)NC(=O)[C@H](CC(C)C)NC(=O)[C@@H](C(C)C)N(C)C(=O)[C@H](CC2CCCCC2)NC1=O (cyclo([Cha][dNMeV]LFL))
inhibition at 5 µM [1]: 45% | inhibition at 5 µM (BXPC-3): 52%

CC(C)C[C@@H]1NC(=O)[C@H](C(C)C)NC(=O)[C@H](CC(C)C)NC(=O)[C@@H](CC(C)C)N(C)C(=O)[C@H](Cc2ccccc2)NC1=O (cyclo([dNMeL]LVLF))
IC50 [1]: 3.5 µM | inhibition at 5 µM [1]: 52% | IC50 (BXPC-3): 3800 nM | inhibition at 5 µM (BXPC-3): 51% | IC50 [2]: 200 µM
